# Experimental data from ChEMBL document CHEMBL5728033 (2020).
# Biological target: Beta-lactamase (Escherichia coli K-12, UniProt P00811)
# Assay: Inhibition of Beta-Lactamase Enzymes: A buffer consisting of 0.1 M sodium phosphate (pH 7.0), 10 mM NaHCO3, and 0.005% Triton X-100 was used for all enzymes. The chromogenic substrate nitrocefin (SynGene, Bangalore, India) was used at 100 μM. Enzyme activity was monitored by the 490 nm absorbance increase upon nitrocefin hydrolysis. Assays were performed in clear polystyrene 384-well plates (Greiner Bio-One, Monroe, N.C.). Absorbance was measured for 1 hour at 30-s intervals using a Spectramax absorbance plate reader (Molecular Devices, Sunnyvale, Calif.). Measurement of beta-lactamase inhibition by INHIBITOR employed serial 3-fold dilutions of the inhibitor in assay buffer, ranging from 100 μM to 62.7 pM. A background absorbance progress curve for a control lacking enzyme and inhibitor was subtracted from each progress curve.
# Format: single protein
# Chain of Beta-lactamase (P00811 whole entry): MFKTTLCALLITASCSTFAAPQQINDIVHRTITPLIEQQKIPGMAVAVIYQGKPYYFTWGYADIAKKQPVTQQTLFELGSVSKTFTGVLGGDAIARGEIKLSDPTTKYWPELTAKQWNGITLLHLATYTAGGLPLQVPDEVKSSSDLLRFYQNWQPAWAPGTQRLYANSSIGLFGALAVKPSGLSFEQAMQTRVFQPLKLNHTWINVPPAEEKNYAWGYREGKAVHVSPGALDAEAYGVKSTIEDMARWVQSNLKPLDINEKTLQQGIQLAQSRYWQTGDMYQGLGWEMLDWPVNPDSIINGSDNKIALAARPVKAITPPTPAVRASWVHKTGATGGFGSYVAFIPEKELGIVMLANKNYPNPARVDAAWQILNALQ
row,Structure (SMILES),IC50 [nM]
1,CC1=C[C@@H]2CN(C(=O)N2OC(F)(F)C(=O)O)[C@@H]1C(N)=O,12
2,NC(=O)[C@@H]1C(C2CC2)=C[C@@H]2CN1C(=O)N2O[C@@H](F)C(=O)O,95
3,CC1=C[C@@H]2CN(C(=O)N2O[C@@H](F)C(=O)O)[C@@H]1C(=O)NCCS(N)(=O)=O,4.1
4,CC1=C[C@@H]2CN(C(=O)N2OCC(=O)O)[C@@H]1C(N)=O,1200
5,CC1=C[C@@H]2CN(C(=O)N2O[C@@H](F)C(=O)O)[C@@H]1C(=O)NC1COC1,54
6,CC1=C[C@@H]2CN(C(=O)N2O[C@@H](F)C(=O)O)[C@@H]1C(N)=O,71
7,CC1=C[C@@H]2CN(C(=O)N2O[C@H](F)C(=O)O)[C@@H]1C(N)=O,11
8,CC1=C[C@@H]2CN(C(=O)N2O[C@@H](F)C(=O)O)[C@@H]1C(=O)NOCC1CC1,130
9,CC1=C[C@@H](C(N)=O)N2C[C@@H]1N(O[C@@H](F)C(=O)O)C2=O,300
10,CC1=C[C@@H]2CN(C(=O)N2O[C@@H](F)C(=O)O)[C@@H]1C(=O)NCCNS(N)(=O)=O,14
11,CC1=C[C@@H](C(N)=O)N2C[C@@H]1N(OCC(=O)O)C2=O,4600
12,CC1=C[C@@H](C(N)=O)N2C[C@@H]1N(O[C@H](F)C(=O)O)C2=O,160
13,CC1=C[C@@H]2CN(C(=O)N2O[C@@H](F)C(=O)O)[C@@H]1C(=O)NCO,17
14,CC1=C[C@@H]2CN(C(=O)N2O[C@@H](F)C(=O)O)[C@@H]1C(=O)NOC[C@@H]1CC(F)(F)CN1,40
15,CC1=C[C@@H]2CN(C(=O)N2O[C@@H](F)C(=O)O)[C@@H]1C(=O)NCCC(N)=O,4.4
16,CC1=C[C@@H]2CN(C(=O)N2O[C@@H](F)C(=O)O)[C@@H]1C(=O)NCCNS(C)(=O)=O,7.3
17,CC1=C[C@@H]2CN(C(=O)N2O[C@@H](F)C(=O)O)[C@@H]1C(=O)NOC[C@@H]1CCC(=O)N1,53
18,CC1=C[C@@H]2CN(C(=O)N2O[C@@H](F)C(=O)O)[C@@H]1C(=O)NCc1cnccn1,2
19,CC1=C[C@@H]2CN(C(=O)N2O[C@@H](F)C(=O)O)[C@@H]1C(=O)NCc1ncco1,9.3

row,Structure (SMILES),IC50 [nM]
1,CC1=C[C@@H]2CN(C(=O)N2O[C@@H](F)C(=O)O)[C@@H]1C(=O)NOC[C@@H]1CCCN1,410
2,O=C(O)C(F)ON1C(=O)N2C[C@H]1CC[C@H]2C(=O)NC1CCNCC1 (some centres not stated),1600
3,CC1=C[C@@H]2CN(C(=O)N2O[C@@H](F)C(=O)O)[C@@H]1C(=O)NOCCS(N)(=O)=O,140
4,CC1=C[C@@H]2CN(C(=O)N2O[C@@H](F)C(=O)O)[C@@H]1C(=O)NCCCS(N)(=O)=O,22
5,CC1=C[C@@H]2CN(C(=O)N2O[C@@H](F)C(=O)O)[C@@H]1C(=O)NCC#N,14
6,CC1=C[C@@H]2CN(C(=O)N2O[C@@H](F)C(=O)O)[C@@H]1CNC(=O)OC(C)(C)C,44000
7,NC(=O)[C@@H]1CC[C@@H]2CN1C(=O)N2O[C@H](F)C(=O)O,2000
8,NC(=O)[C@@H]1C(C2CC2)=C[C@@H]2CN1C(=O)N2O[C@H](F)C(=O)O,22
9,CC1=C[C@@H](C(N)=O)N2C[C@@H]1N(OC(F)(F)C(=O)O)C2=O,36
10,CC1=C[C@@H]2CN(C(=O)N2O[C@@H](F)C(=O)O)[C@@H]1C(=O)NCC[C@@H]1CCC(=O)N1,10
11,CC(=O)NNC(=O)[C@@H]1C(C)=C[C@@H]2CN1C(=O)N2OC(F)C(=O)O (some centres not stated),8.3
12,CC1=C[C@@H]2CN(C(=O)N2OC(F)C(=O)O)[C@@H]1C(=O)NCc1cnccn1 (some centres not stated),1.8
13,CC1=C[C@@H](C#N)N2C[C@@H]1N(O[C@H](F)C(=O)O)C2=O,590
14,CC(=O)NCNC(=O)[C@@H]1C(C)=C[C@@H]2CN1C(=O)N2O[C@@H](F)C(=O)O,3.1
15,CC1=C[C@@H]2CN(C(=O)N2OC(F)C(=O)O)[C@@H]1c1nnc(C(N)=O)o1 (some centres not stated),180
16,CC1=C[C@@H]2CN(C(=O)N2O[C@@H](F)C(=O)O)[C@@H]1C(=O)NCNS(N)(=O)=O,2.1
17,CC1=C[C@@H]2CN(C(=O)N2OC(C)(F)C(=O)O)[C@@H]1C(N)=O (mixture of isomers),400
18,CC1=C[C@@H]2CN(C(=O)N2OC(F)C(=O)O)[C@@H]1C(N)=O (mixture of isomers),20
